Test results from US7547698B2, “Bicyclic heterocyclic derivatives and their use as inhibitors of stearoyl-coadesaturase (SCD)” (Xenon Pharmaceuticals Inc., priority 2004, dated 2009).

Compound `O=C(Nc1ccc(F)cc1)c1cn2nc(N3CCN(C(=O)c4ccccc4C(F)(F)F)CC3)ccc2n1` [Example 1.9, 6-[4-(2-TRIFLUOROMETHYLBENZOYL)PIPERAZIN-1-YL]-IMIDAZO[1,2-B]PYRIDAZINE-2-CARBOXYLIC ACID (4-FLUOROPHENYL)AMIDE] has a melting point of 115 to 117 °C.
`O=C(NCc1ccc(F)cc1)c1cn2nc(N3CCN(C(=O)c4ccccc4C(F)(F)F)CC3)ccc2n1` [Example 1.8, 6-[4-(2-TRIFLUOROMETHYLBENZOYL)PIPERAZIN-1-YL]IMIDAZO[1,2-B]PYRIDAZINE-2-CARBOXYLIC ACID 4-FLUOROBENZYLAMIDE] showed a melting point of 205 to 207 °C.
Work on `CCCCCNC(=O)c1cn2nc(N3CCN(C(=O)c4ccccc4C(F)(F)F)CC3)ccc2n1` yielded a melting point of 179 to 180 °C.
In the case of `O=C(Nc1ccc(Cl)cn1)c1cn2nc(N3CCN(C(=O)c4ccccc4C(F)(F)F)CC3)ccc2n1` [Example 1.7, 6-[4-(2-TRIFLUOROMETHYLBENZOYL)PIPERAZIN-1-YL]IMIDAZO[1,2-B]PYRIDAZINE-2-CARBOXYLIC ACID (5-CHLOROPYRIDIN-2-YL)AMIDE], the melting point was 265 to 268 °C.
For `CCCCNC(=O)c1cn2nc(N3CCN(C(=O)c4ccccc4C(F)(F)F)CC3)ccc2n1` [Example 1.6, 6-[4-(2-TRIFLUOROMETHYLBENZOYL)PIPERAZIN-1-YL]IMIDAZO[1,2-B]PYRIDAZINE-2-CARBOXYLIC ACID BUTYLAMIDE], the melting point was 187 to 189 °C.
